Data as given in article PMC8703412 (Pharmaceuticals, 2021).
Values after ≈ are worked out from the molar mass of the structure shown. Like-named read-outs stand apart in the source and are kept apart here.

Experiments:
[1] = test system: Mycobacterium tuberculosis strain 331/88 (i.e., H37Rv); assay: MIC micromethod in Šula's medium, drug-susceptible Mtb.; assay type: cell-based
[2] = test system: Mycobacterium avium 330/88; assay: MIC micromethod in Šula's medium, M. avium; assay type: cell-based
[3] = test system: Mycobacterium kansasii 6509/96 (clinical isolate); assay: MIC micromethod in Šula's medium, M. kansasii; assay type: cell-based; conditions: Mycobacterium kansasii
[4] = Cytotoxicity, CellTiter 96 (MTS) assay; conditions: human, Cytotoxicity for HepG2 cells, IC50, 24 h incubation, 1–1000 µM
[5] = Mycobacterium tuberculosis, H37RV, 336 h, 14 d incubation, esters, Table 1, read-out: MIC Mtb. 331/88 14 d
[6] = Mycobacterium tuberculosis, H37RV, 504 h, 21 d incubation, esters, Table 1, read-out: MIC Mtb. 331/88 21 d
[7] = Mycobacterium avium, 330/88, 336 h, 14 d incubation, Table 1, read-out: MIC M. avium 330/88 14 d
[8] = Mycobacterium avium, 330/88, 504 h, 21 d incubation, Table 1, read-out: MIC M. avium 330/88 21 d
[9] = 168 h, 7 d incubation, Table 1, read-out: MIC M. kansasii 6509/96 7 d
[10] = 336 h, 14 d incubation, Table 1, read-out: MIC M. kansasii 6509/96 14 d
[11] = 504 h, 21 d incubation, Table 1, read-out: MIC M. kansasii 6509/96 21 d
[12] = 504 h, text summary over 7, 14 and 21 d, read-out: MIC for M. kansasii 6509/96

SMILES | MIC [1, 5] [µM] | MIC [1, 6] [µM] | MIC [2, 7] [µM] | MIC [2, 8] [µM] | MIC [3, 9] [µM] | MIC [3, 10] [µM] | MIC [3, 11] [µM] | melting point [°C] | IC50 at 24 h [4] [µM] | MIC [3, 12] [µM] | MIC ([1]; Mycobacterium tuberculosis, H37RV, 504 h, 14 and 21 d, read-out: MIC for Mtb.) [µM] | MIC ([1]; 14 d incubation, precursors, Table 2, read-out: MIC Mtb. 331/88 14 d) [µM] | MIC ([1]; 21 d incubation, precursors, Table 2, read-out: MIC Mtb. 331/88 21 d) [µM] | MIC ([2]; 14 d incubation, precursors, Table 2, read-out: MIC M. avium 330/88 14 d) [µM] | MIC ([2]; 21 d incubation, precursors, Table 2, read-out: MIC M. avium 330/88 21 d) [µM] | MIC ([3]; 168 h, 7 d incubation, precursors, Table 2, read-out: MIC M. kansasii 6509/96 7 d) [µM] | MIC ([3]; 336 h, 14 d incubation, precursors, Table 2, read-out: MIC M. kansasii 6509/96 14 d) [µM] | MIC ([3]; 504 h, read-out: MIC M. kansasii 6509/96 21 d) [µM] | MIC ([3]; 504 h, 21 d incubation, precursors, Table 2, read-out: MIC M. kansasii 6509/96 21 d) [µM]
COC(=O)/C(C)=N/NC(=O)c1ccncc1 [3a, Methyl (E)-2-(2-isonicotinoylhydrazineylidene)propanoate] | 0.25 (≈ 0.0553 µg/mL) | 0.25 (≈ 0.0553 µg/mL) | 500 (≈ 111 µg/mL) | 1000 (≈ 221 µg/mL) | 2 (≈ 0.442 µg/mL) | 4 (≈ 0.885 µg/mL) | 8 (≈ 1.77 µg/mL) | 122 to 124.8 | > 1000 |  |  |  |  |  |  |  |  |  | 
C/C(=N\NC(=O)c1ccncc1)C(=O)Oc1ccccc1 [3b, Phenyl (E)-2-(2-isonicotinoylhydrazineylidene)propanoate] | 0.125 (≈ 0.0354 µg/mL) | 0.25 (≈ 0.0708 µg/mL) | > 250 | > 250 | 8 (≈ 2.27 µg/mL) | 8 (≈ 2.27 µg/mL) | 8 (≈ 2.27 µg/mL) | 186 to 189 | > 1000 |  |  |  |  |  |  |  |  |  | 
C/C(=N\NC(=O)c1ccncc1)C(=O)Oc1ccc(C)cc1 [3c, p-Tolyl (E)-2-(2-isonicotinoylhydrazineylidene)propanoate] | ≤ 0.25 | 0.5 (≈ 0.149 µg/mL) | > 250 | > 250 | 8 (≈ 2.38 µg/mL) | 8 (≈ 2.38 µg/mL) | 8 (≈ 2.38 µg/mL) | 168 to 170 | > 1000 |  |  |  |  |  |  |  |  |  | 
COc1ccc(OC(=O)/C(C)=N/NC(=O)c2ccncc2)cc1 [3d, 4-Methoxyphenyl (E)-2-(2-isonicotinoylhydrazineylidene)propanoate] | 0.25 (≈ 0.0783 µg/mL) | 0.25 (≈ 0.0783 µg/mL) | 500 (≈ 157 µg/mL) | 1000 (≈ 313 µg/mL) | 4 (≈ 1.25 µg/mL) | 8 (≈ 2.51 µg/mL) | 8 (≈ 2.51 µg/mL) | 169 to 172 | > 1000 |  |  |  |  |  |  |  |  |  | 
C/C(=N\NC(=O)c1ccncc1)C(=O)Oc1ccc(F)cc1 [3f, 4-Fluorophenyl (E)-2-(2-isonicotinoylhydrazineylidene)propanoate] | 0.25 (≈ 0.0753 µg/mL) | 0.5 (≈ 0.151 µg/mL) | 500 (≈ 151 µg/mL) | 500 (≈ 151 µg/mL) | 2 (≈ 0.603 µg/mL) | 4 (≈ 1.21 µg/mL) | 4 (≈ 1.21 µg/mL) | 174.1 to 177.2 | > 1000 |  |  |  |  |  |  |  |  |  | 
C/C(=N\NC(=O)c1ccncc1)C(=O)Oc1ccc(Cl)cc1 [3g, 4-Chlorophenyl (E)-2-(2-isonicotinoylhydrazineylidene)propanoate] | ≤ 0.125 | ≤ 0.125 | 500 (≈ 159 µg/mL) | 1000 (≈ 318 µg/mL) | 4 (≈ 1.27 µg/mL) | 8 (≈ 2.54 µg/mL) | 16 (≈ 5.08 µg/mL) | 184 to 186.1 | > 1000 |  |  |  |  |  |  |  |  |  | 
C/C(=N\NC(=O)c1ccncc1)C(=O)Oc1ccc(Br)cc1 [3h, 4-Bromophenyl (E)-2-(2-isonicotinoylhydrazineylidene)propanoate] | ≤ 0.125 | 0.25 (≈ 0.0905 µg/mL) | 250 (≈ 90.5 µg/mL) | 500 (≈ 181 µg/mL) | 8 (≈ 2.9 µg/mL) | 8 (≈ 2.9 µg/mL) | 16 (≈ 5.79 µg/mL) | 190 to 192 | > 1000 | 8 to 16 (≈ 2.9 to 5.79 µg/mL) |  |  |  |  |  |  |  |  | 
C/C(=N\NC(=O)c1ccncc1)C(=O)OCc1ccncc1 [3n, Pyridin-4-ylmethyl (E)-2-(2-isonicotinoylhydrazineylidene)propanoate] | 0.5 (≈ 0.149 µg/mL) | 1 (≈ 0.298 µg/mL) | ≥ 1000 | ≥ 1000 | 8 (≈ 2.39 µg/mL) | 16 (≈ 4.77 µg/mL) | 16 (≈ 4.77 µg/mL) | 126 to 128 | > 1000 | 8 to 16 (≈ 2.39 to 4.77 µg/mL) | 0.5 to 1 (≈ 0.149 to 0.298 µg/mL) |  |  |  |  |  |  |  | 
CC(=O)Nc1ccc(OC(=O)C(C)=NNC(=O)c2ccncc2)cc1 [3p, 4-Acetamidophenyl 2-(2-isonicotinoylhydrazineylidene)propanoate] | 0.25 (≈ 0.0851 µg/mL) | 0.5 (≈ 0.17 µg/mL) | 1000 (≈ 340 µg/mL) | 1000 (≈ 340 µg/mL) | 8 (≈ 2.72 µg/mL) | 16 (≈ 5.45 µg/mL) | 16 (≈ 5.45 µg/mL) |  | > 1000 | 8 to 16 (≈ 2.72 to 5.45 µg/mL) |  |  |  |  |  |  |  |  | 
C/C(=N\NC(=O)c1ccncc1)C(=O)OCCn1c([N+](=O)[O-])cnc1C [3q, 2-(2-Methyl-5-nitro-1H-imidazol-1-yl)ethyl (E)-2-(2 isonicotinoylhydrazineylidene)propanoate] | 0.25 (≈ 0.0901 µg/mL) | 0.5 (≈ 0.18 µg/mL) | 500 (≈ 180 µg/mL) | 1000 (≈ 360 µg/mL) | 2 (≈ 0.721 µg/mL) | 4 (≈ 1.44 µg/mL) | 4 (≈ 1.44 µg/mL) | 123 to 125.7 | > 1000 |  |  |  |  |  |  |  |  |  | 
CCSC(=O)/C(C)=N/NC(=O)c1ccncc1 [3r, S-Ethyl (E)-2-(2-isonicotinoylhydrazineylidene)propanethioate] | 0.25 (≈ 0.0628 µg/mL) | 0.25 (≈ 0.0628 µg/mL) | 250 (≈ 62.8 µg/mL) | 500 (≈ 126 µg/mL) | 1 (≈ 0.251 µg/mL) | 2 (≈ 0.503 µg/mL) | 4 (≈ 1.01 µg/mL) | 158 to 160 | > 1000 |  |  |  |  |  |  |  |  |  | 
C/C(=N\NC(=O)c1ccncc1)C(=O)Sc1ccccc1 [3s, S-Phenyl (E)-2-(2-isonicotinoylhydrazineylidene)propanethioate] | 0.25 (≈ 0.0748 µg/mL) | 0.25 (≈ 0.0748 µg/mL) | 250 (≈ 74.8 µg/mL) | 250 (≈ 74.8 µg/mL) | 1 (≈ 0.299 µg/mL) | 2 (≈ 0.599 µg/mL) | 4 (≈ 1.2 µg/mL) | 186 to 187 | 182 |  |  |  |  |  |  |  |  |  | 
NNC(=O)c1ccncc1 [INH 1, Isoniazid, reference compound] | 1 (≈ 0.137 µg/mL) | 1 (≈ 0.137 µg/mL) | > 250 | > 250 | 8 (≈ 1.1 µg/mL) | 8 (≈ 1.1 µg/mL) |  |  | > 1000 |  |  | 1 (≈ 0.137 µg/mL) | 1 (≈ 0.137 µg/mL) | >250 | >250 | 4 (≈ 0.549 µg/mL) | 8 (≈ 1.1 µg/mL) | 16 (≈ 2.19 µg/mL) | 8 (≈ 1.1 µg/mL)
